Source: the supplement of paper PMC3621838
± gives the standard deviation of the averaged measurements.

These sequences were tested on HEK293 NF-kB-luciferase reporter cells (assay: NF-kB luciferase reporter activity, robust Z-score vs plate median (robust Z-score (log luminescence)); higher = stronger NF-kB reporter activation). Details: TNF 0 ng/mL; TNF treatment time 8.5 h; transfection time 72 h.
Protocol: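 Primary screen of an Ambion Pre-miR miRNA mimic library (miRBase v8.0, 1.6 pmol/well, 384-well, duplicate) reverse-transfected into HEK293 cells stably expressing a 5x NF-kB firefly luciferase reporter. After 72 h the cells were treated with vehicle or TNF (40 ng/mL) for 8.5 h and luminescence was read (BriteLite). Raw luminescence was log-transformed and converted to a robust Z-score per plate: (x - plate median)/plate MAD. Sequence given is the mature miRNA strand of the double-stranded mimic.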

Row | Sequence | NF-kB luciferase reporter activity
1 | CCUCUGGGCCCUUCCUCCAG | 2.88 ± 0.89
2 | CGAAUGUUGCUCGGUGAACCCCU | -1.7 ± 0.2
3 | CGCAUCCCCUAGGGCAUUGGUGU | -0.887 ± 0.054
4 | CGGGUGGAUCACGAUGCAAUUU | 0.731 ± 0.46
5 | CUACAAAGGGAAGCACUUUCUC | -1.11 ± 0.64
6 | CUCCAGAGGGAAGUACUUUCU | -1.38 ± 1.7
7 | CUCCAGAGGGAUGCACUUUCU | -1.38 ± 0.64
8 | CUCCUGACUCCAGGUCCUGUGU | 1.44 ± 0.61
9 | CUCUAGAGGGAAGCACUUUCU | 0.466 ± 0.17
10 | CUCUAGAGGGAAGCACUUUCUCU | 1.17 ± 0.88
11 | CUCUAGAGGGAAGCGCUUUCUGUU | 1.69 ± 0.18
12 | CUCUUGAGGGAAGCACUUUCUGUU | 1.14 ± 0.36
13 | CUGACCUAUGAAUUGACAGCC | -0.152 ± 0.091
14 | CUGCAAAGGGAAGCCCUUUCU | -0.197 ± 1
15 | CUGGACUUAGGGUCAGAAGGCC | 0.0764 ± 0.11
16 | CUGGACUUGGAGUCAGAAGGCC | -1.02 ± 0.24
17 | CUGGAUGGCUCCUCCAUGUCU | 0.547 ± 0.21
18 | CUGGCCCUCUCUGCCCUUCCGU | 0.704 ± 0.42
19 | CUGUGCGUGUGACAGCGGCUGA | 0.091 ± 0.43
20 | CUUUCAGUCGGAUGUUUACAGC | -0.449 ± 0.15
21 | CUUUUUGCGGUCUGGGCUUGC | 0.334 ± 0.36
22 | GAAGGCGCUUCCCUUUAGAGC | -0.845 ± 0.78

Row | Sequence | NF-kB luciferase reporter activity
23 | GAAGGCGCUUCCCUUUGGAGU | -0.702 ± 0.69
24 | GAAGUGCUUCGAUUUUGGGGUGU | -1.7 ± 0.2
25 | GAAGUUGUUCGUGGUGGAUUCG | -0.0557 ± 0.33
26 | GAGGUUGUCCGUGGUGAGUUCG | -0.468 ± 0.88
27 | GAGUGCCUUCUUUUGGAGCGU | -0.314 ± 0.76
28 | GCAAAGCACACGGCCUGCAGAGA | -0.287 ± 0.28
29 | GCACAUUACACGGUCGACCUCU | -0.263 ± 0.11
30 | GCCCCUGGGCCUAUCCUAGAA | 1.22 ± 0.89
31 | GCCUGCUGGGGUGGAACCUGG | -0.469 ± 0.36
32 | GCUGCGCUUGGAUUUCGUCCCC | -0.0918 ± 0.13
33 | GGAGAAAUUAUCCUUGGUGUGU | 0.189 ± 0.13
34 | GGUAGAUUCUCCUUCUAUGAG | -0.702 ± 0.69
35 | GUCAACACUUGCUGGUUUCCUC | -0.0513 ± 0.073
36 | GUCAUACACGGCUCUCCUCUCU | 0.54 ± 0.4
37 | GUGAAAUGUUUAGGACCACUAG | 0.966 ± 1.4
38 | GUGCCGCCAUCUUUUGAGUGU | 0.919 ± 0.46
39 | GUGCCUACUGAGCUGAUAUCAGU | -0.791 ± 0.86
40 | GUGUCUUUUGCUCUGCAGUCA | 0.568 ± 0.32
41 | GUGUGUGGAAAUGCUUCUGC | 0.447 ± 0.27
42 | UAAACGUGGAUGUACUUGCUUU | -0.000139 ± 0.48
43 | UAACACUGUCUGGUAAAGAUGG | 0.999 ± 0.35
44 | UAACAGUCUCCAGUCACGGCC | -0.0296 ± 0.44

Row | Sequence | NF-kB luciferase reporter activity
45 | UAAGGCACCCUUCUGAGUAGA | -1.29 ± 0.15
46 | UAAGUGCUUCCAUGUUUGAGUGU | -1.48 ± 0.11
47 | UAAGUGCUUCCAUGUUUUGGUGA | -1.29 ± 0.15
48 | UAAUACUGCCGGGUAAUGAUGG | 0.0214 ± 0.44
49 | UAAUACUGCCUGGUAAUGAUGAC | 0.744 ± 0.84
50 | UAAUACUGUCUGGUAAAACCGU | -0.175 ± 0.95
51 | UACAGUAUAGAUGAUGUACUAG | 0.343 ± 0.35
52 | UACUCAGGAGAGUGGCAAUCACA | 1.06 ± 0.93
53 | UAGCACCAUCUGAAAUCGGUU | 0.81 ± 0.93
54 | UAGCAGCGGGAACAGUUCUGCAG | 0.878 ± 0.18
55 | UAGGCAGUGUCAUUAGCUGAUUG | 2.71 ± 0.93
56 | UAGGUAGUUUCCUGUUGUUGG | -1.2 ± 0.5
57 | UAUACAAGGGCAAGCUCUCUGU | -1.38 ± 0.64
58 | UAUGGCUUUUCAUUCCUAUGUG | -0.314 ± 0.58
59 | UAUGUAAUAUGGUCCACAUCUU | -1.06 ± 0.48
60 | UAUGUGCCUUUGGACUACAUCG | -0.472 ± 0.26
61 | UAUGUGGGAUGGUAAACCGCUU | 0.166 ± 0.72
62 | UCAAGAGCAAUAACGAAAAAUGU | 0.225 ± 0.32
63 | UCACAGUGAACCGGUCUCUUUC | -1.06 ± 0.48
64 | UCACUCCUCUCCUCCCGUCUUCU | 2.53 ± 0.2
65 | UCAGGCUCAGUCCCCUCCCGAU | -0.315 ± 0.14
66 | UCAGUCUCAUCUGCAAAGAAG | 2.97 ± 0.59

Row | Sequence | NF-kB luciferase reporter activity
67 | UCAGUGCAUCACAGAACUUUGU | 0.225 ± 0.32
68 | UCAGUGCAUGACAGAACUUGGG | -0.378 ± 0.05
69 | UCCAGCAUCAGUGAUUUUGUUGA | 0.425 ± 0.23
70 | UCCAGCUCCUAUAUGAUGCCUUU | 3.61 ± 0.75
71 | UCCCUGAGACCCUUUAACCUGUG | 0.417 ± 0.12
72 | UCCCUGUCCUCCAGGAGCUCA | 0.322 ± 0.46
73 | UCCGUCUCAGUUACUUUAUAGCC | 0.757 ± 0.51
74 | UCCUGUACUGAGCUGCCCCGAG | 0.874 ± 0.074
75 | UCGGGGAUCAUCAUGUCACGAG | 1.13 ± 0.071
76 | UCGUGCAUCCCUUUAGAGUGUU | 1.73 ± 0.3
77 | UCUACAAAGGGAAGCCCUUUCUG | -0.631 ± 0.31
78 | UCUACAGUGCACGUGUCU | -1.16 ± 0.34
79 | UCUCACACAGAAAUCGCACCCGUC | 0.103 ± 1.2
80 | UCUCCCAACCCUUGUACCAGUG | 0.0398 ± 0.056
81 | UCUCUGGAGGGAAGCACUUUCUG | -0.463 ± 0.65
82 | UCUGCAAAGGGAAGCCCUUU | 0.625 ± 1.3
83 | UCUGGCUCCGUGUCUUCACUCC | 0.957 ± 0.014
84 | UCUUGGAGUAGGUCAUUGGGUGG | 1.37 ± 0.57
85 | UGAAACAUACACGGGAAACCUCUU | 0.49 ± 0.56
86 | UGAAGGUCUACUGUGUGCCAG | -0.779 ± 1.1
87 | UGAGAACUGAAUUCCAUAGGCU | -1.29 ± 0.15
88 | UGAGGUAGGAGGUUGUAUAGU | -0.314 ± 0.58
